This note sets out measurements from patent US11421001B2, “Template-fixed peptidomimetics” (UNIVERSITAET ZUERICH, priority 2007, dated 2022).

Positions of bridges follow the written chain, without caps; N, C: chain ends. Non-standard residues stand in square brackets, D forms with d. Residues, ends and D or L forms follow the SMILES beside them. Dab = NCC[C@H](N)C(=O)O

Common to all, as to assay type: cell-based
One data set deals with T1, human CXCR4 (Homo sapiens, UniProt P61073).
T1 construct: expressed in transfected cells; host or cells: mouse pre-B cell line 300-19
Put plainly: Ca2+ assay: CXCR4-antagonizing activity. To be noted: mouse pre-B cell line 300-19 transfected with human CXCR4; calcium mobilization induced by 10 nM SDF-1; read-out: IC50 (nM) Ca2+ assay. As for the experimental part:
2.2. Ca^2+− Assay: CXCR4-Antagonizing Activity of the Peptides.
Increases in intracellular calcium were monitored using a Flexstation 384 (Molecular Devices, Sunnyvale, Calif.) to assay the peptides for CXCR4 antagonism in a mouse pre-B cell line 300-19 stably transfected with human CXCR4 [see references 1, 2 and 3, below]. The cells were batch loaded with the Calcium 3 Assay kit (Molecular Devices) in assay buffer (Hanks Balanced salt solution, HBSS, 20 mM HEPES, pH 7.4, 0.1% BSA) for 1 h at room temperature and then 200,000 labeled cells were dispensed into black 96 well assays plates (Costar No. 3603). A 20-fold concentrated solution of peptide in assay buffer was added to the cells and the whole plate was centrifuged to settle the cells to the bottom of the wells. Calcium mobilization induced by 10 nM stromal-derived factor-1 (SDF-1) was measured in the Flexstation 384 (excitation, 485 […]) for 90 seconds. A maximal change in fluorescence response above baseline was used to calculate antagonist activity. The data for dose response curves (antagonist concentration versus % maximum response) were fitted to a four parameter logistic equation using SoftmaxPro 4.6 (Molecular Devices), from which IC50% values were calculated.
(Calcium assays in cells follow changes in intracellular calcium, usually with a dye or a luminescent sensor.)

Data set [1] can be described thus: Cytotoxicity assay (MTT reduction). To be noted: human, HELA cells (Acc57), peptides at 12.5, 25 and 50 μM, trend line, read-out: Cyto-toxicity LC50/GI50 Hela cells. The method, then: The cytotoxicity of the peptides to HELA cells (Acc57) and COS-7 cells (CRL-1651) was determined using the MTT reduction assay [see ref. 6 and 7, below]. Briefly the method was as follows: HELA cells and COS-7 cells were seeded at 7.0×10^3 and, respectively, 4.5×10^3 cells per well and grown in 96-well microtiter plates for 24 hours at 37° C. at 5% CO2. At this point, time zero (Tz) was determined by MTT reduction (see below). The supernatant of the remaining wells was discarded, and fresh medium and the peptides in serial dilutions of 12.5, 25 and 50 μM were pipetted into the wells. Each peptide concentration was assayed in triplicate. Incubation of the cells was continued for 48 hours at 37° C. at 5% CO2. Wells were then washed once with PBS and subsequently 100 μl MTT reagent (0.5 mg/mL in medium RPMI1640 and, respectively, DMEM) was added to the wells. This was incubated at 37° C. for 2 hours and subsequently the medium was aspirated and 100 μl isopropanol was added to each well. The absorbance at 595 nm of the solubilized product was measured (OD595peptide). For each concentration averages were calculated from triplicates. The percentage of growth was calculated as follows: (OD595peptide−OD595Tz−OD595Empty well)/(OD595Tz−OD595Empty well)×100% and was plotted for each peptide concentration. […]

Data set [2] concerns human red blood cells (hRBC). Put plainly: Hemolysis. The method, then: The peptides were tested for their hemolytic activity against human red blood cells (hRBC). Fresh hRBC were washed three times with phosphate buffered saline (PBS) by centrifugation for 10 min at 2000×g. Peptides at a concentration of 100 μM were incubated with 20% v/v hRBC for 1 hour at 37° C. The final erythrocyte concentration was approximately 0.9×10^9 cells per ml. A value of 0% resp. 100% cell lysis was determined by incubation of the hRBC in the presence of PBS alone and respectively 0.1% Triton X-100 in H2O. The samples were centrifuged and the supernatant was 20-fold diluted in PBS buffer and the optical density (OD) of the sample at […] was measured. The 100% lyses value (OD540H2O) gave an OD540 of approximately 1.3-1.8. Percent hemolysis was calculated as follows: (OD540peptide/OD540H2O)×100%.

One may read the IC50 as the point on the concentration scale where inhibition reaches its midpoint.

T1 sequence (P61073 whole entry): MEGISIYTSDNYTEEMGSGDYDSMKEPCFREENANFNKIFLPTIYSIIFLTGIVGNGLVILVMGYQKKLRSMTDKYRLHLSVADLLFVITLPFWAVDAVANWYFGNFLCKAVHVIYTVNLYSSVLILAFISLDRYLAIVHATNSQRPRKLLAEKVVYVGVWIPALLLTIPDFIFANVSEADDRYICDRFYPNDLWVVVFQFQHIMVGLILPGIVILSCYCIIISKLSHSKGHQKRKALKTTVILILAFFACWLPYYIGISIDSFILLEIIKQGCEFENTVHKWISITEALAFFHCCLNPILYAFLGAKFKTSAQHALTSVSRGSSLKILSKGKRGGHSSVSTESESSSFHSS

As to `C[C@@H]1NC(=O)[C@H](CO)NC(=O)[C@@H]2CSSC[C@H](NC(=O)[C@H](Cc3ccc(O)cc3)NC(=O)[C@H](CCCNC(=N)N)NC(=O)[C@H](CCN)NC(=O)[C@H]3CCCN3C1=O)C(=O)N[C@@H](Cc1ccc(O)cc1)C(=O)N[C@@H](CCC(N)=O)C(=O)N[C@@H](CCCCN)C(=O)N1CCC[C@@H]1C(=O)N1CCC[C@H]1C(=O)N[C@@H](Cc1ccc(O)cc1)C(=O)N[C@@H](Cc1c[nH]cn1)C(=O)N[C@@H](Cc1ccc(O)cc1)C(=O)N2` [Example 2] (cyclo(YHYCSA[dP][Dab]RYCYQK[dP]P); disulfide 4-11), at human CXCR4, the IC50 was found to be 4.1 nM. The CC50 at 48 h in data set [1] was 94 µM. The “Hemo-lysis at 100 μM” value in data set [2] was 0.3.
